The subject of data set [1] is P. aeruginosa. Nature of the data set: Bactericidal assays under static conditions (PBS). In kind it is cell-based. The procedure: Bactericidal assays under static conditions. […] Silica nanoparticles (NO-releasing and control), PROLI/NO, and proline were added to separate aliquots of the bacterial suspension over a concentration range optimized for each system. After 1 h incubation at 37° C. with gentle agitation, 100-μL aliquots from each suspension were plated on tryptic soy agar. After overnight incubation at 37° C., the colonies on each plate were counted, allowing for calculation of the number of viable P. aeruginosa cells in each vial at the time of plating.

The test system of the next data set is L929 cells. The experiment in a line: L929 propidium iodide (PI) viability assay (Example 1). In kind it is cell-based, mouse. Particulars: 2 mg/mL, L929, KRH buffer. The procedure: [formula] L929 propidium iodide (PI) viability assay. L929 cells were plated on 24-well tissue culture treated dishes (BD Bioscience #353047) at a density of 3.0×10^5 cells/ml (150×10^3 cells/well) and incubated overnight at 37° C., in 5% CO2/95% air for 18-20 h. For the PI assay, the incubation buffer was aspirated from each of the wells and replaced with 500 μL of Krebs-Ringer-HEPES (KRH) buffer containing (mM): 115 NaCl, 5 KCl, 1 CaCl2, 1 KH2PO4, 1.2 MgSO4, 25 HEPES, pH 7.4, supplemented with 30 μM of PI. The fluorescence of the cells was determined in a concentration-dependent manner against both proli/NO and proline, as monitored using a FluoStar Galaxy plate reader (BMG Labtech, Durham, N.C.) with excitation and emission filters set at 544 and 640 nm, respectively. Fluorescence was acquired at 0 and 60 min. An additional 20 min incubation of cells with 40 μM digitonin was required to completely permeabilize plasma membranes and achieve maximum PI fluorescence. Cell viability was represented as an increase in PI fluorescence from each well expressed as percentage of the maximum fluorescence obtained in cells treated with digitonin (100% cell death). S. aureus cytotoxicity assay in PBS. […] Toxicity was measured by aliquoting this bacterial solution into eppendorf tubes containing proli/NO, incubating these solutions for one hour at 37° C., and then plating them on TSA plates. […]

Data set [2] deals with P. aeruginosa. The experiment in a line: Time-based bactericidal assays under nutrient growth conditions (TSB). In kind it is cell-based. More on the design: amount of NO per mL required for complete bacterial killing: unit not given here. The procedure:
Time-based bactericidal assays under nutrient growth conditions. To test the temporal efficacy of the NO-releasing silica nanoparticles, time-based antibacterial assays were conducted in TSB nutrient media. P. aeruginosa was cultured in TSB to a concentration of 10^8 CFU·mL^−/1 and diluted to 10^4 CFU·mL^−1 in additional TSB. […] Bacterial viability was determined as described above after incubating the plates overnight at 37° C.

In data set [3] the test system is S. aureus. Nature of the data set: Fractional bactericidal concentration (FBC120) time-based synergistic killing assay in TSB. In kind it is cell-based.
Protocol: (§1) Determining the Minimum Bactericidal Concentration (MBC120). […] This value, the MBC120, was acquired by growing S. aureus to an OD600=0.075 in TSB. At this value the concentration was determined to be 10^8 CFUs/mL. In order to achieve a final bacterial concentration of 10^4, four ten-fold dilutions were performed in TSB. […] For proli/NO, 1 mL of 2×10^4 CFUs/mL bacterial solution was added to various masses (0.5-16 mg). […] The plates were incubated overnight at 37° C. and enumerated. The graphs present the total CFUs present in each tube as determined by counting each colony and multiplying that number by 100 to account for both 10-fold dilutions. Determination of Fractional Bactericidal Concentration (FBC120). […] S. aureus was cultured to a concentration of 10^8 CFUs/mL and the concentration was adjusted to 2×10^4 CFUs/mL in TSB. […] After incubating the plates overnight at 37° C., viability was determined by counting the number of distinct colonies on each plate and multiplying this number by 100 to account for the two 10-fold dilutions. The numerical value of the FBC120 was obtained according to the equation:
The test system of a further data set is P. aeruginosa cells. The experiment in a line: Confocal microscopy with DAF-2 DA NO probe and propidium iodide. In kind it is cell-based. The text has this:
Once inside the bacterial cell membrane, the DAF-2 DA probe is hydrolyzed to DAF-2, which is membrane-impermeable. […] Cells loaded with DAF-2 were imaged in the presence of propidium iodide (PI), which is a nucleic acid viability dye that only enters cells with compromised membranes, and fluoresces red once inside the cells. Thus, red fluorescence is indicative of cell death. […] After a peak intracellular intensity of DAF-2 fluorescence was reached, the red fluorescence of the PI began to increase, indicating entry of the PI into the cells due to membrane disruption and cell death.

The format of data set [4] is physicochemical. On the procedure:
We synthesized proli/NO by subjecting a 2:1 molar ratio of sodium methoxide in methanol and proline to 5 atm of NO for 3 days. To the resulting solution excess diethyl ether was added. After vacuum removal of solvent a white solid was obtained. Its NO release was monitored using chemiluminescence; we determined that proli/NO releases a total of 1.8 μmol NO/mg in less than 70 s when exposed to PBS at pH 7.4. Release is initiated quickly by protonation of proline's cyclic amine or slowly by thermal degradation. In the MBC120 determination, proli/NO was kept on ice until exposure to bacterial solution to prevent thermal NO release. Proli/NO's MBC120 is 16 mg/mL against S. aureus. […] See Turner, T. D., et al., J Pharm. Pharmacol. 41, 775-80 (1989). […] Synergy is determined based on inhibition beyond what would be expected for each alone. […] More specifically, the MBC was used instead of the MIC, once again because we are interested in reducing a bacterium's chances of becoming resistant to the drug employed by developing conditions that will lead to a quick kill. Additionally, reducing the bacterial burden in wound beds quickly is paramount to prevent infections. […] See Feng Q. L. et al., J. Biomed. Mater. Res. 52, 662-668 (2000).
Nitric oxide release measurements. Nitric oxide release from both the diazeniumdiolate-modified silica nanoparticles and PROLI/NO was measured in deoxygenated phosphate-buffered saline (PBS, 0.01 M; 37° C.) at pH 7.4 using a Sievers NOA 280i chemiluminescence NO analyzer (Boulder, Colo.). Nitric oxide released from the donors was transported to the analyzer by a stream of N2 (70 mL·min^−1) passed through the reaction cell. The instrument was calibrated with air passed through a NO zero filter (0 ppm NO) and a 24.1 ppm NO standard gas (balance N2).

Data set [5] has as its system S. aureus. Particulars: TSB.
Protocol: as §1
The test system of another data set is mammalian cells. Particulars: 200 ppm for 4 hours; cited from earlier work.
Where [6] appears, read: amount of NO equal to 100 μg·mL^−1 nanoparticles.

These results are taken from patent US8399005B2, “Use of nitric oxide to enhance the efficacy of silver and other topical wound care agents” (University of North Carolina at Chapel Hill, priority 2007, dated 2013).

For the compound `NCCNCCN` [diethylenetriamine backbone, diethylenetriamine], in the data set on P. aeruginosa [1] (data not shown), the “toxicity of backbone alone to P. aeruginosa” value was “considerable toxicity”.

Regarding `O=C([O-])C1CCCN1[N+]([O-])=N[O-].[Na+].[Na+]` (stereo not shown) [proli/NO], in the data set on L929 cells, the “toxicity to dermal fibroblasts” value is “non-toxic”. In the data set with P. aeruginosa [1] (PBS, 1 h), the “amount of NO required per mL for a 3 log reduction in bacterial viability” value amounted to 4.5 μmol NO and the “concentration completely bactericidal (3 logs of killing)” value was 2.5 mg·mL^−1. The “mass required relative to silica nanoparticles for complete killing” value with P. aeruginosa [1] (PBS, by mass) is recorded as “approximately 35 times”. Further, in the data set with P. aeruginosa [2] (12 mg·mL^−1, TSB), the “time to complete killing” value came out at 30 min. In addition, the “time of bacterial killing” value in the data set with P. aeruginosa [2] (12 and 20 mg·mL^−1, TSB) is under 30 min. Moreover, the “amount of NO per mL required for complete bacterial killing” value with P. aeruginosa [2] (TSB) is given as 21.6. In addition, the “toxicity to S. aureus, agent alone” value in the data set on S. aureus [3] (8 mg/mL proli/NO alone) is “non-toxic”. Also, the “fraction of MBC120 used in the combination” value with S. aureus [3] (2/16 mg/mL proli/NO, 21.9/[…] AgSD) is given as 0.125. In addition, in the data set with P. aeruginosa cells (5 mg·mL^−1), the “P. aeruginosa cell death (PI fluorescence)” value was “rapid cell death” and the “intracellular DAF-2 fluorescence prior to cell death” value was “still not observed”. Further, in the data set with P. aeruginosa cells (setting [6]), the “P. aeruginosa cell death (PI fluorescence)” value is “cell death was not observed” and the “intracellular DAF-2 fluorescence” value is “no intracellular DAF-2 fluorescence was observed”. Further, in data set [4] (PBS at pH 7.4 (Example 1)), the “time in which the total NO is released” value is given as “less than 70 s” and the “total NO released” value came to 1.8 μmol NO/mg. In addition, the “total amount of NO released (t[NO])” value in data set [4] (PBS pH 7.4, 37° C. (Example 2)) is 1.8 μmol NO·mg^−1. The “time required to reach the maximum NO flux (tm)” value in data set [4] (after immersion in / addition to buffer) is given as “approximately 1 min”. The “maximum NO flux ([NO]m)” value in data set [4] (not told, pH 7.4) is over 145000 ppb·mg^−1. Further, the “NO release half life (t1/2)” value in data set [4] (pH 7.4) is reported as under 2 min. For the same compound, the “MBC120 (concentration for three logs of killing within 120 min)” value against S. aureus [5] was determined as 16 mg/mL.

In the case of `O=C(O)[C@@H]1CCCN1` [proline], the “killing of P. aeruginosa by controls depleted of NO” value in the data set on P. aeruginosa [1] (over the concentration ranges tested) was “no killing”. Also, the “toxicity to P. aeruginosa” value in the data set with P. aeruginosa [1] (up to 20 mg·mL^−1, the highest concentrations tested) is reported as “no toxicity”. For the same compound, in the data set with P. aeruginosa [2] (TSB, 2 h), the “growth of P. aeruginosa exposed to control solutions” value is “proliferated”.

Take nitric oxide [NO gas]: the “toxicity to mammalian cells” value in the data set with mammalian cells is “not toxic”.
